According to patent US20020142995A1, “Ammonium salts of hemoglobin allosteric effectors, and uses thereof” (priority 2000, published 2002):
“And” between values parts separate entries of the source, which are not always exact repeats. Equal values may be shown once. Read-outs that look alike come from different tables or passages of the source.

What was measured:
goldfish free hemoglobin = molecular target: T1, goldfish free hemoglobin (Carassius auratus, UniProt P02018+P02140); assay: Oxygen dissociation curves of goldfish free hemoglobin with allosteric effectors; type: biochemical; set-up: unit not given beside the values
T1 construct: human and goldfish free hemoglobin controls; from tissue; host or cells: goldfish blood (erythrocyte hemoglobin freed from cells); inferred from 'free hemoglobin' beside 'whole blood'
T1 sequence (P02140 1-147): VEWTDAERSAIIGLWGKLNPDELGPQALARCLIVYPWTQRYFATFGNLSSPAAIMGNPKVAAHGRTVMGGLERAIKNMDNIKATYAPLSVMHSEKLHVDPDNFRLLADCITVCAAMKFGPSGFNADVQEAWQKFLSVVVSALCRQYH
T1 sequence (P02018 1-142): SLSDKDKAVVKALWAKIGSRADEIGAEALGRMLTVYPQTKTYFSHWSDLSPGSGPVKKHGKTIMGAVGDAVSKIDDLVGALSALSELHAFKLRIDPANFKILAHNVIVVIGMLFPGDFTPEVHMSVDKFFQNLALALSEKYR
Method: FIG. 3 tabulates the P50 values of human and goldfish whole blood controls, human and goldfish free hemoglobin controls, and goldfish free hemoglobin that has been pre-incubated with various allosteric effectors and an ammonium salt of one of them.
FIG. 5 depicts oxygen dissociation curves of human free hemoglobin (pH 7.1; […]), goldfish free hemoglobin (pH 7.1; P50=8.5), and goldfish free hemoglobin+0.25 μmol IHP (pH 7.1; P50=15.0).
FIG. 6 depicts oxygen dissociation curves of goldfish free hemoglobin+0.5 μmol PCHA-DPG (pH 7.1; P50=10.3), goldfish free hemoglobin+0.5 μmol ATP (pH 7.08; P50=21.0), and goldfish free hemoglobin+0.5 μmol GTP (pH 7.11; P50=23.0).

Red Blood Cells = assay: Aggregation of red blood cells after incubation with effector; type: cell-based; conditions: whole blood incubated with effector
Method: Incubation: Whole blood (75-300 μL) was incubated with 200 μL of effector at 37° C. for 5-10 min. (see Summary of Results below).
Washes: After incubation of whole blood with/without effector, blood cells were washed four times with Saline buffer or HBS (BSA) by centrifugal pelleting to remove exogenous effector and to evaluate hemolysis. After final centrifugation, pellet was not resuspended.

[1] = Visual appearance of effector solution; type: physicochemical
Method: Preparation of Effector Stock: Effector stock was prepared at 100-120 mM (Molal solution) using water or Bis-Tris Buffer.

whole blood = assay: Blood oxygen dissociation (Hemox Analyzer) of whole blood pre-incubated with effector; type: cell-based; set-up: Observed P50: unit not given here; conditions: for P50 of treated-washed RBC pellet vs. control: after resuspended in HBS; for change of the P50 of treated Red Blood Cells vs. control: observation, whole blood incubated with effector
Method: Whole blood was collected from one subject. The blood was stored in a Vacutainer with Solution A (ACD) and stored at 4-8° C.
Effector characteristics prior to incubation were:
(see Summary of Results below).
Washes: After incubation of whole blood with/without effector, blood cells were washed four times with Saline buffer or HBS (BSA) by centrifugal pelleting to remove exogenous effector and to evaluate hemolysis. […]
Blood Oxygen Dissociation Reading: Blood Oxygen Dissociation of samples were determined using a Hemox Analizer Model B (TCS Medical Products Company, New Hope, Pa.) The sample chamber contained:
10-20 μL Pelleted Blood Cells incubated with Effector.
All readings were made at 36.7-37.2° C. and at pH 7.28-7.32. The P50S were calculated from the Dissociation Curves (see FIGS. 16-23) compared to same day control P50.

[2] = molecular target: allosteric site on hemoglobin (Homo sapiens, UniProt P68871); conditions: displaces hemoglobin-bound 2,3-DPG; cited from earlier work
stripped hemoglobin = stripped hemoglobin (Homo sapiens, UniProt P68871); conditions: cited from earlier work
human RBCs = conditions: IHP encapsulated in human RBCs by electroporation; cited from earlier work
[3] = goldfish free hemoglobin + 0.5 μmol effector, pH 7.08-7.11
[4] = 75 μL whole blood incubated (2-5 min) with 200 μL 30 mM effector, washed 4×, 15 μL RBC measured at 37° C.

Sequence of stripped hemoglobin (P69905 2-142 partner limits assumed): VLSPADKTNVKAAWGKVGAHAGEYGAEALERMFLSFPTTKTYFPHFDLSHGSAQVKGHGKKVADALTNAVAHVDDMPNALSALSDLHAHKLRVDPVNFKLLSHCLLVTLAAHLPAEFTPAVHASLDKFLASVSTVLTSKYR
Sequence of stripped hemoglobin (P68871 2-147 limits assumed): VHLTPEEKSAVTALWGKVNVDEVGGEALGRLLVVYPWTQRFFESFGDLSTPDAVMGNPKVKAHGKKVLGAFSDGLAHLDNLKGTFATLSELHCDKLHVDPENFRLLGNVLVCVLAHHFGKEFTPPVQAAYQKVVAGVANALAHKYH
Sequence of allosteric site on hemoglobin (P69905 2-142 partner limits assumed): as the sequence (P69905 2-142 partner limits assumed) above
Sequence of allosteric site on hemoglobin (P68871 2-147 limits assumed): as the sequence (P68871 2-147 limits assumed) above

Row | Compound | P50 (goldfish free hemoglobin; [3]) | aggregation of Red Blood Cells (Red Blood Cells) | appearance of the solution [1] | Observed P50 (whole blood; [4]) | change of the P50 of treated Red Blood Cells vs. control (whole blood) | further results
1 | Nc1ncnc2c1ncn2[C@@H]1O[C@H](COP(=O)(O)OP(=O)(O)OP(=O)(O)O)[C@@H](O)[C@H]1O [ATP, adenosine triphosphate] | 21.0 | – | – | – | – | –
2 | Cyclohexylammonium-Inositol Hexaphosphate [CHA-IHP] | – | no aggregation | visually clear | 42.0 and 58.2 and 32.8 | Increases the P50 | Observed P50 (whole blood; 75 μL whole blood + 200 μL 30 mM effector, washed 4×, cell pellet stored for 48 hrs at 4-8° C., measured at 37° C.): 50.5; P50 of treated-washed RBC pellet vs. control (whole blood): maintain higher P50 than the control; P50 EFF:WB (whole blood; same sample as FIG. 12C, evaluated 48 h later (stored at 4-8 C.), 25 mM, 171 mOsM): 50.5 mmHg
3 | NC1CCCCC1.NC1CCCCC1.NC1CCCCC1.NC1CCCCC1.NC1CCCCC1.O=C(O)[C@@H](COP(=O)(O)O)OP(=O)(O)O [PCHA-DPG, 2,3 Diphospho-D-Glyceric Acid (Pentacyclohexyclammonium salt)] | 10.3 | no aggregation | visually clear | 50.5 and 47.3 and 36.0 | Increases the P50 | P50 of treated-washed RBC pellet vs. control (whole blood): maintain higher P50 than the control
4 | NC1CCCCC1 [CHA, Cyclohexylamine] | – | no aggregation | visually clear | 28.5 and 26.8 | No change | –
5 | O=C([O-])[C@@H](COP(=O)([O-])[O-])OP(=O)([O-])[O-].[Na+].[Na+].[Na+].[Na+].[Na+] [PNa-DPG, 2,3 Diphospho-D-Glyceric Acid (Pentasodium salt)] | – | no aggregation | visually clear | 38.2 | No change | Observed P50 (whole blood; 75 μL whole blood + 200 μL 30 mM effector, 2-5 min, 37° C., Hypotonic, Osm: 163 mOsM): 37.5; Observed P50 (whole blood; 75 μL whole blood + 200 μL 30 mM effector, 2-5 min, 37° C., Isotonic, Osm: 321 mOsM): 39.6
6 | O=P(O)(O)O[C@H]1[C@H](OP(=O)(O)O)[C@@H](OP(=O)(O)O)[C@H](OP(=O)(O)O)[C@@H](OP(=O)(O)O)[C@H]1OP(=O)(O)O [IHP, myo-inositol hexakis (dehydrogen Phosphate)] | – | no aggregation | visually clear | – | No change | affinity for the allosteric site relative to 2,3-DPG [2]: one-thousand times greater affinity; Observed P50 (whole blood; 75 μL whole blood + 200 μL 30 mM effector, 2-5 min, 37° C., Hypotonic, Osm: 185 mOsM): 37.5; P50 (goldfish free hemoglobin; goldfish free hemoglobin + 0.25 μmol effector, pH 7.1): 15.0; half-saturation pressure P(O2) (½) (stripped hemoglobin; pH 7.4, 25 C.): 48.4 mm Hg; half-saturation pressure P(O2) (½) (stripped hemoglobin; pH 7.4, 37 C.): 96.4 mm Hg; P50 of modified RBCs (human RBCs): approximately 50 torr
7 | Nc1nc2c(ncn2[C@@H]2O[C@H](COP(=O)(O)OP(=O)(O)OP(=O)(O)O)[C@@H](O)[C@H]2O)c(=O)[nH]1 [GTP] | 23.0 | – | – | – | – | –
8 | O=C(O)C(COP(=O)(O)O)OP(=O)(O)O (stereo not drawn) [2,3-Diphosphoglycerate] | – | – | – | – | – | half-saturation pressure P(O2) (½) (stripped hemoglobin; pH 7.4, 25 C.): 12.0 mm Hg; half-saturation pressure P(O2) (½) (stripped hemoglobin; pH 7.4, 37 C.): 23.7 mm Hg
